Assay results as given in patent publication US5886026A, “Anti-angiogenic compositions and methods of use” (priority 1994, dated 1999).

Key:
[1] = Encapsulation of paclitaxel or baccatin in ELVAX:poly-l-lactic acid microspheres; format: physicochemical; details: for amount encapsulated: from 500 μg
Description: Microspheres are then prepared in a dissolution machine (Six-spindle dissolution tester, VanderKanp, Van Kell Industries Inc., U.S.A.) in triplicate at 200 rpm, 42° C., for 3 hours. Microspheres so prepared are washed twice in water and sized on the microscope.

[2] = tested on: chick chorioallantoic membrane (CAM); assay: Chick chorioallantoic membrane (CAM) assay, paclitaxel in methylcellulose disks; format: in vivo
Text: As noted above, the present invention provides methods and compositions which utilize anti-angiogenic factors. Briefly, within the context of the present invention, anti-angiogenic factors should be understood to include any protein, peptide, chemical, or other molecule, which acts to inhibit vascular growth. A variety of methods may be readily utilized to determine the anti-angiogenic activity of a given factor, including for example, chick chorioallantoic membrane ("CAM") assays. Briefly, as described in more detail below in Examples 2A and 2C, a portion of the shell from a freshly fertilized chicken egg is removed, and a methyl cellulose disk containing a sample of the anti-angiogenic factor to be tested is placed on the membrane. After several days (e.g., 48 hours), inhibition of vascular growth by the sample to be tested may be readily determined by visualization of the chick chorioallantoic membrane in the region surrounding the methyl cellulose disk. Inhibition of vascular growth may also be determined quantitatively, for example, by determining the number and size of blood vessels surrounding the methyl cellulose disk, as compared to a control methyl cellulose disk.
Fertilized, domestic chick embryos were incubated for 3 days prior to shell-less culturing. […] These were then placed into an incubator at 90% relative humidity and 3% CO2 and incubated for 3 days.
The membranes of the 8 day-old shell-less embryo were flooded with 2% glutaraldehyde in 0.1M Na cacodylate buffer; additional fixative was injected under the CAM. After 10 minutes in situ, the CAM was removed and placed into fresh fixative for 2 hours at room temperature. The tissue was then washed overnight in cacodylate buffer containing 6% sucrose. The areas of interest were postfixed in 1% osmium tetroxide for 1.5 hours at 4° C. The tissues were then dehydrated in a graded series of ethanols, solvent exchanged with propylene oxide, and embedded in Spurr resin. Thin sections were cut with a diamond knife, placed on copper grids, stained, and examined in a Joel 1200EX electron microscope. Similarly, […] sections were cut and stained with toluene blue for light microscopy.
This imaging setup was used at a magnification of 160 times which permitted the direct visualization of blood cells within the capillaries; thereby blood flow in areas of interest could be easily assessed and recorded. […] This scale represents the degree of overall inhibition with maximal inhibition represented as a 3 on the avascular gradient scale.

normal chondrocytes = assay: Chondrocyte viability (Trypan blue); format: cell-based; details: 72 hours
[3] = Release from ELVAX:poly-l-lactic acid microspheres, 18 hours tumbling at 37° C.; format: physicochemical
collagenase = assay: IL-1 induced collagenase expression in chondrocytes (Northern blot); format: cell-based, bovine; details: 10^-6 M
Description: C-fos is an oncogene transcription factor shown to be involved and required for the induction of genes involved in cell proliferation and collagenase expression. […] When IL-1 is administered to chondrocytes in vitro there is a transient increase in fos mRNA levels which peak 30-60 minutes later, while collagenase mRNA is detected 9 hours later and continues to increase up to 12 hours (data not shown) after IL-1 stimulation. The fos and collagenase mRNA can be detected using the respective cDNA probes and analyzed by Northern blot analysis. This allows the determination of agents capable of inhibiting collagenase production and an approximation of the step in the collagenase synthetic pathway that is affected by the treatment.
The cells were then incubated for a further 16 hours. Total RNA from bovine articular chondrocytes was isolated by the acidified guanidine isothiocyanate method and the collagenase mRNA determined by Northern blot analysis. The RNA samples were prepared as described above using ^32 P-labeled rat collagenase cDNA.

neutrophils [4] = assay: Neutrophil degranulation, lysozyme release; format: cell-based, human; details: 28 μM, CPPD
Description: (§1) All experiments that studied neutrophil responses to crystals or zymosan in the presence of paclitaxel were performed using plasma opsonized CPPD or zymosan. Opsonization of crystals or zymosan was done with 50% heparinized plasma at a concentration of 75 mg of CPPD or 12 mg of zymosan per ml of 50% plasma. Crystals or zymosan were incubated with plasma for 30 min. at 37° C. and then washed in excess HBSS.
One and a half milliliter Eppendorf tubes containing either 25 mg of CPPD or 1 mg of zymosan were preheated to 37° C. 0.5 ml of cells at 37° C. were added followed by vigorous shaking to initiate the reactions.
Briefly, Micrococcuis lysodeikticzis was suspended at 0.1 mg/ml in 65 mM potassium phosphate buffer, pH 6.2 and the absorbance at 450 nm was adjusted to 0.7 units by dilution. The crystal (or zymosan) and cell supernatant (100 μl) was added to 2.5 ml of the Micrococcus suspension and the decrease in absorbance was monitored.

synovial fibroblasts = assay: Synoviocyte proliferation (Trypan blue); format: cell-based, bovine; details: 24 hours
neutrophils [5] = assay: Neutrophil viability (LDH release); details: 46 μM, one hour, 37° C.
Description: (§2) Neutrophils were prepared from freshly collected human citrated whole blood. Briefly, 400 ml of blood were mixed with 80 ml of 4% dextran T500 (Pharmacia LKB, Biotechnology AB Uppsala, Sweden) in HBSS and allowed to settle for 1 h. Plasma was collected continuously and 5 ml applied to 5 ml of Ficoll Paque (Pharmacia) in 15 ml polypropylene tubes (Coming, N.Y.). Following centrifugation at 500×g for 30 min, the neutrophil pellets were washed free of erythrocytes by 20 s of hypotonic shock. Neutrophils were resuspended in HBSS, kept on ice and used for experiments within 3 h. Neutrophil viability and purity was always greater than 90%.
(§3) Cells were incubated for 20 minutes at 33° C. then for 10 minutes at 37° C. before addition to crystals or zymosan.

synoviocytes = assay: 3H-Thymidine incorporation into synoviocytes; format: cell-based
Description: At these times, […] of ^3 H-thymidine was added to the cell culture and incubated for 2 hours at 37° C. The cells were placed through a cell harvester, washed through a filter, the filters were cut, and the amount of radiation contained in the filter sections determined. Once the amount of thymidine incorporated into the cells was ascertained, it was used to determine the rate of cell proliferation. This experiment was repeated three times and the data collated together.

in vitro = details: human, neutrophils
Description: as §2, §3

neutrophils [6] = assay: Neutrophil superoxide anion generation; format: cell-based, human; details: 28 μM
Description: as §1
Superoxide anion concentrations were measured using the superoxide dismutase inhibitable reduction of cytochrome c assay. Briefly, 25 mg of crystals or 0.5 mg of zymosan was placed in a 1.5 ml capped Eppendorf tube and warmed to 37° C. 0.5 ml of cells at 37° C. were added together with ferricytochrome c (final concentration 1.2 mg/ml) and the cells were activated by shaking the capped tubes. […] Control tubes were set up under the same conditions with the inclusion of superoxide dismutase at 600 units per ml.

## CC(=O)O[C@H]1C(=O)[C@@]2(C)[C@H]([C@H](OC(=O)c3ccccc3)[C@]3(O)C[C@H](OC(=O)[C@H](O)[C@@H](NC(=O)c4ccccc4)c4ccccc4)C(C)=C1C3(C)C)[C@]1(OC(C)=O)CO[C@@H]1C[C@@H]2O [paclitaxel]
[1]; fluorescence
  encapsulated, % by weight of the polymer: 1.5%
  encapsulated, % of original weight: 15%
  amount encapsulated: 75 µg
[1]; uv/vis
  encapsulated, % by weight of the polymer: 1.2%
  encapsulated, % of original weight: 12%
  amount encapsulated: 58 µg
[2]; 48 h exposure, 10μ paclitaxel per 10 ml methylcellulose
  avascular zone diameter: 6 mm
[2]; 48 hours after application
  inhibition of angiogenesis: angiogenesis was inhibited
[2]; CAM histology
  cells arrested in mitosis in avascular zones: abundance of cells arrested in mitosis in all three germ layers
[2]; after application
  onset of inhibition of angiogenesis: 9 h
  time without revascularization of avascular zone: at least 7 days
[2]; within 48 hours, depending on concentration
  avascular gradient scale: 3 (avascularity extending beyond the disk (6 mm in diameter))
[2]; within 48 hours, methylcellulose disks
  avascular zone diameter: 6 mm
Normal chondrocytes
  cytotoxicity to normal chondrocytes: no cytotoxicity to normal chondrocytes
Normal chondrocytes; up to 10^-5 M
  viability of normal chondrocytes: does not affect the viability of normal chondrocytes
[3]; fluorescence
  released from the microspheres: 6%
[3]; uv/vis
  released from the microspheres: 10.3%
collagenase
  collagenase mRNA: not detectable above background
  inhibition of IL-1 induced collagenase expression: completely inhibited
Neutrophils [4]
  lysozyme release: reduced lysozyme release
Synovial fibroblasts; 10^-6 M and 10^-5 M
  toxicity to synovial fibroblasts: toxic to the synovial fibroblasts in vitro
Synovial fibroblasts
  cytotoxicity to proliferating synovial fibroblasts: cytotoxic to proliferating synovial fibroblasts in a concentration dependent manner
Synovial fibroblasts; Bos taurus, Fibroblast, read-out: lowest concentration inhibiting proliferation
  minimal effective concentration: ≤ 0.1 µM
Neutrophils [5]
  cell death: did not cause cell death
synoviocytes; 6 or 24 hours, read-out: lowest concentration inhibiting 3H-thymidine incorporation
  minimal effective concentration: ≤ 0.01 µM
synoviocytes; 6 hours
  inhibition of thymidine incorporation, high vs low concentrations: no significant difference
synoviocytes; 24 hours, 10^-8 M
  inhibition of thymidine incorporation at low concentration: some of the effect was lost at lower concentrations of the drug (10^-8 M), but was still substantially lower than that seen in control animals
In vitro
  cytotoxicity at 1 h, 46 µM: < 5%
Neutrophils [6]; CPPD
  superoxide anion production: decrease in the amount of superoxide generated at all times
Neutrophils [6]; zymosan
  superoxide anion production: less dramatic than the inhibition of CPPD activation but was significant at all times
